Values of other authors in US7625901B2, “Substituted monocyclic CGRP receptor antagonists” (Merck & Co., Inc., priority 2006, dated 2009).
No end group written: not given here.

Columns and labels:
facial blood flow [1] = conditions: marmoset, electrical stimulation of the trigeminal ganglion
[2] = tested on: acute attacks of migraine; conditions: clinical trials
[3] = tested on: headache induced by CGRP infusion; conditions: control group
[4] = tested on: diameter of the middle meningeal artery; conditions: rats, electrical stimulation of the dura mater, prior administration
facial blood flow [5] = conditions: rat, trigeminal ganglion stimulation

Row | Compound | block of increase in facial blood flow (facial blood flow [1]) | treating acute attacks of migraine [2] | prevention of headache induced by CGRP infusion [3] | block of increased diameter of the middle meningeal artery [4] | inhibition of increased facial blood flow (facial blood flow [5])
1 | NCCCC[C@H](NC(=O)[C@@H](Cc1cc(Br)c(O)c(Br)c1)NC(=O)N1CCC(N2Cc3ccccc3NC2=O)CC1)C(=O)N1CCN(c2ccncc2)CC1 [BIBN4096BS] | could be blocked | effective | able to prevent headache |  | 
2 | CGRP(8-37): a peptide CGRP antagonist; fragment of CGRP that lacks seven N-terminal amino acid residues (VTHRLAGLLSRSGGVVKNNFVPTNVGSKAF; ends and bridges not checked; UniProt P06881 90-119, looked up, fragment) |  |  |  | blocked | inhibited
